Assay results taken from patent US20180312539A1, “METHODS FOR PREPARING HIGH THROUGHPUT PEPTIDOMIMETICS, ORALLY BIOAVAILABLE DRUGS AND COMPOSITIONS CONTAINING SAME” (University of Southern California, priority 2011, published 2018).
*1 amine or outer side, *2 acyl side, *3 side chain or, on linkers, in order; H or OH if unused. Where a SMILES comes first, the peptide text is derived from it. Bridges are numbered along the chain shown (N, C = ends). [ ]: non-standard residue; d: D form. The star is where a group is joined. 5FAM = O=C1OC2(c3ccc(O)cc3Oc3cc(O)ccc32)c2ccc(C(=O)*)cc21; Palmitoleoyl = CCCCCC/C=C\CCCCCCCC(=O)*; Glutaryl = O=C(CCCC(=O)[*:2])[*:1]; NMeA = CN[C@@H](C)C(=O)O

Assays:
[1] = mouse, iv
Protocol: (§1) 200 μL of peptide was administered by IV injection into the tail vein of C57BL6 mice at a dose of 10 mg/kg. 50 μL blood samples were taken at various time points by orbital bleeding using heparin coated capillary tubes and isoflurane for anesthesia. Samples are diluted to 600 μLin TE buffer (pH=8.0) then filtered by centrifugation through a 3000 MWCO filter. The flowthrough was analyzed on a Shimadzu RF-5301 PC fluorometer. Time points were integrated and analyzed using Prism 5.0 software.
(§2) To that end mice were administered peptide conjugated to fluorescein by IV injection into the tail vein. Blood samples were taken by orbital bleeding. Blood peptide concentration was determined by comparing fluorescence to a 15 minute time point.

[2] = parameters: species or system C57BL6 mice; conditions: mouse, in vivo, 10 mg/kg
Protocol: The following peptides were synthesized for oral administration: […](FAM) (SEQ ID NO: 14), […](FAM)DK(Palmitoleic acid) (SEQ ID NO: 15), and […](FAM) (SEQ ID NO: 16), wherein FAM is a lysine derivative containing fluorescein. All peptides were cyclized from the side chain to lysine to the N-terminus as previously described. Anesthetized C57BL6 mice had peptide administered at a dose of 10 mg/kg by oral gavage. After administration, mice were removed from isoflurane. At various time points, blood samples were taken by orbital bleeding as previously described. Peaks were normalized to a 15 minute time point from mice that had peptide administered by IV injection.
The following peptides were synthesized for oral administration: […](FAM) (SEQ ID NO: 14), […](FAM) (SEQ ID NO: 16), […](FAM)DK(biotin) (SEQ ID NO: 38), and […](FAM)DK(Palmitoleic acid) (SEQ ID NO: 15). All peptides were cyclized from the side chain to lysine to the N-terminus as previously described in Millward, S. W. et al. (2007) ACS Chem. Biol. 2:625. Anesthetized C57BL6 mice had peptide administered at a dose of 10 mgs/Kg by oral gavage. After administration, mice were removed from isoflurane. At various time points, blood samples were taken by orbital bleeding as previously described. Peaks were normalized to a 20 minute time point from mice that had peptide administered by IV injection. Area under the curve was analyzed by Graphpad 5.0.
In addition to accessing intracellular targets in cell culture, deriving a simple modification that would facilitate oral bioavailability of peptidic ligands would be greatly beneficial for therapeutic development. Intestinal absorption of both fatty acids and biotin is nearly 100% efficient. Zempleni, J. and Mock, D. M. (1999) The American Journal of Clinical Nutrition 69:504. […] Applicants synthesized a protease resistant peptide with the sequence […]-mod (designated SUPR peptide) (SEQ ID NO: 50), where A is N-methyl alanine, the peptide is cyclized from lysine to the N-terminus, and K(mod) is lysine with a modified sidechain including either biotin or palmitoleic acid. Palmitoleic acid is a monounsaturated fatty acid chosen for its ability to bind human serum albumin, and its low melting point allowing for more favorable solubility of conjugated peptides as compared to […] fatty acid conjugates. This peptide was administered to mice at a dose of 10 mg/kg by oral gavage. At various time points, blood was taken from the mice by orbital bleeding. After processing, fluorescence was quantified and compared to the maximum signal obtained by IV injection of peptide at the same dose.

[3] = mouse, in vivo, iv, 10 mg/kg
Protocol: as §1, §2

[4] = Membrane localization on PAMPA membrane; format: in vitro ADME; conditions: 0.2 mM peptide, 0 and 15 min
Excerpt: Membrane was set up as described above. […] Care was taken not to disrupt the membrane when samples were removed.
In order to study the mechanism of this enhanced permeation in more detail, Applicants quantitated the biotin-peptide conjugate's membrane localization.

[5] = PAMPA (parallel artificial membrane permeability assay); format: in vitro ADME; conditions: lauric acid in place of biotin
Protocol: PAMPA assays were set up following manufacturer's instructions. Briefly, 1% phosphatidyl choline (Sigma) was dissolved in dodecane (Sigma) at 65° C. for 3 min. The membrane was applied to each well as per manufacturer's instructions. […] 100 μL of sample was put into each donor well. The acceptor wells contained 300 μL of a 5% DMSO in PBS solution. Passive diffusion was allowed to occur at room temperature for 24 hrs. […] Absorbance at 215 nm was monitored. The area under the peptide peak was integrated.
The acceptor well contained 10 mM DTT as a reducing agent. Data was collected after 6, 12 and 24 hrs. Absorbance at 280 nm was analyzed. The following formula was used to calculate Log Pe: […]
Applicants employed a parallel artificial membrane permeability assay (PAMPA) that will allow for the rapid screening of peptide passive diffusion across a phospholipid bilayer. (Schmidt, et al. (2003) J. Millipore Corporation Application Note AN1729EN00.). In this assay, two chambers are separated by a phospholipid bilayer supported on an inert membrane. Applicants chose to initially focus Applicants examination on peptide ligands developed to bind with high affinity to the heterotrimeric G-proteins Gαi1*GDP and Gα12*GDP. Ja, W. W., et al. (2004) Biochemistry 43:9265; Millward, S. W., et al. (2007) ACS Chem. Biol. 2:625; Fiacco, S. et al. (2008) ChemBioChem 9:2200. These ligands included variations in sequence, size, overall charge, and polarity as well as comparing linear and cyclic peptides, end and biotinylation. […] According to classical methods of increasing permeability. Pinski, C. A., et al. (2001) Advanced Drug Delivery Reviews 46:3. Applicants postulated that the removal of hydrogen bond donors by N-methylation should further increase the permeability of this peptide.

b = experiment: b
Excerpt: Table printed on a drawing sheet, FIGURES 5A and 5B
FIG. 5A is Vmax for chymotrypsin digestion of cycGIBP(•), linSUPR(♦), and cycSUPR(▪). A close up of linSUPR and cycSUPR is embedded in the Figure to show the data in more detail. FIG. 5B is a Table showing values for Km and Vmax as derived by processing the data through Graphpad Prism 5.0. Both Km and Vmax are highly optimized for protease resistance in cycSUPR peptide when compared to cycGIBP.
First reader's note: Km and Vmax are kinetic parameters of chymotrypsin digestion of the peptides (protease stability); the sheet prints no unit for Km.

With `CCCCCC/C=C\CCCCCCCC(=O)NCCCC[C@@H](NC(=O)[C@H](CCCCNC(=O)c1ccc2c(c1)C(=O)OC21c2ccc(O)cc2Oc2cc(O)ccc21)NC(=O)[C@@H]1CCCCNC(=O)CCCC(=O)N[C@@H](CCSC)C(=O)N[C@@H](Cc2ccccc2)C(=O)N[C@@H](Cc2ccc(O)cc2)C(=O)N(C)[C@@H](C)C(=O)N[C@@H](Cc2ccc(O)cc2)C(=O)N[C@@H](CCC(=O)O)C(=O)N[C@@H](Cc2ccc(O)cc2)C(=O)N(C)[C@@H](C)C(=O)N[C@@H](CCC(N)=O)C(=O)N[C@@H](Cc2c[nH]c3ccccc23)C(=O)N[C@@H](CO)C(=O)N1)C(=O)O` [FA-cycSUPR] (MFY[NMeA]YEY[NMeA]QWSKK(5FAM)[dK](Palmitoleoyl)-OH; linker N-12 via Glutaryl) the “fold increase in in vivo half-life over cycGIBP” value [1] was 354 fold, the bioavailability [2] was 9.8% and the oral uptake efficiency ([2]; po) was 9.4%. It also gave a half-life [3] of 18.3 h.

For `CCCCCCCCCCCC(=O)O` [Lauric acid], the membrane localization [4] was 27% and the “Log Pe” value [5] was −6.8.

With `CC[C@H](C)[C@@H]1NC(=O)[C@H](CCSC)NC(=O)CCCC(=O)NCCCC[C@@H](C(N)=O)NC(=O)[C@H]([C@@H](C)O)NC(=O)CNC(=O)[C@H](C)NC(=O)[C@H](C(C)C)NC(=O)[C@H](Cc2ccccc2)NC(=O)[C@H](CCC(=O)O)NC(=O)[C@H](Cc2ccc(O)cc2)NC(=O)[C@H](Cc2c[nH]c3ccccc23)NC(=O)[C@H]([C@@H](C)O)NC1=O` [cycGIBP] (MITWYEFVAGTK-NH2; linker N-12 via Glutaryl) the “Vmax” value (b) was 37 nmol/s.
